Data published in patent US20250332157A1, “SOLID COMPOSITION OF GLP-1 RECEPTOR AGONIST” (Hangzhou Zhongmeihuadong Pharmaceutical Co., Ltd., priority 2021, published 2025).
Several values for one entry are separate records, joined by “and”; a condition that tells them apart may be missing. Equal entries are not always repeated. Structures can show the parent of a compound that is named as a salt.

Assays:
[1] = Forced degradation experiment of active ingredient (acid, alkali, oxidation, high temperature, light, high humidity), HPLC; format: physicochemical; parameters: Impurity B / Impurity E / Impurity F / Impurity G / Impurity I / Largest unknown impurity: unit not given here
Method: Preparation of solutions: • (1) destructive test article solution: 25 mg of OAD2 or a pharmaceutically acceptable salt thereof was placed into a 50 ml measuring flask. Diluent was added to dissolve it and the mixture was diluted to the scale mark, shaken well and used as a test article solution. • (2) test article solution destructed by acid: 25.35 mg of OAD2 or a pharmaceutically acceptable salt thereof was placed into a 50 ml measuring flask. 2 ml of 1 mol/L hydrochloric acid was added, and the mixture was mixed, stood at room temperature for 24 h, adjusted pH to neutral with 1 mol/L sodium hydroxide solution. Diluent was added to dilute the mixture to the scale mark. The mixture was shaken well, and used as the test article solution destructed by acid. • (3) test article solution destructed by alkali: 26.64 mg of OAD2 or a pharmaceutically acceptable salt thereof was placed into a 50 ml measuring flask. 2 ml of 1 mol/L sodium hydroxide solution was added, and the mixture was mixed, stood at room temperature for 24h, adjusted pH to neutral with 1 mol/L hydrochloric acid solution. Diluent was added to dilute the mixture to scale mark. The mixture was shaken well, and used as test article solution destructed by alkali. • (4) acid-base blank: 2 ml of 1 mol/L sodium hydroxide solution was placed into a 50 ml measuring flask. The solution was neutralized with 1 mol/L hydrochloric acid solution, then diluted to the scale mark with a diluent, and shaken well to serve as the acid-base destruction blank solution. • (5) test article solution destructed by oxidation: 28.10 mg of OAD2 or a pharmaceutically acceptable salt thereof was placed into a 50 ml measuring flask. 2 ml of 15% hydrogen peroxide was added, stood at room temperature for 9 h. The mixture was diluted to the scale mark with a diluent. […] It was dissolved and diluted to the scale mark with a diluent, shaken well, and used as the test article solution destructed by high temperature. • (8) test article solution destructed by light exposure: 25.12 mg of OAD2 or pharmaceutically acceptable salt thereof was accurately weighted, placed into a 50 ml measuring flask, stood under irradiation of light 4500 Lx+−500 Lx for 6 days. It was dissolved and diluted to the scale mark with a diluent, shaken well, and used as the test article solution destructed by light exposure. • (9) test article solution destructed by high-humidity destruction: 25.71 mg of OAD2 or a pharmaceutically acceptable salt thereof was placed into a 50 ml measuring flask, then the measuring flask was placed into a drier with KNO3 saturated solution at the bottom (humidity was 92.5%), stood for 5 days. It was dissolved and diluted to the scale mark with a diluent, shaken well, and used as the test article solution destructed by high-humidity destruction. • (10) blank solution that is not destructed, not destructed by high-temperature, not destructed by high-humidity and not destructed by light exposure: a diluent.
The measuring method: 2 μl of each of the above solutions (1)-(10) was injected into a liquid chromatograph, and the chromatograms were recorded. Among them, the results of the forced degradation experiment are shown in Table 13.1, and the results of the changes of various impurity components after the forced degradation are shown in Table 13.2. […]

[2] = Forced degradation studies No. 2 of OAD2 2HCl in solution (water, HCl, NaOH, H2O2, UV light), HPLC; format: physicochemical
Method: A stock solution was prepared by dissolving 12.90 mg of OAD2 2 HCl in acetonitrile:water (70:30) to a final volume of 25 mL ([…]). For test groups 1 and 2, the test solution was prepared by mixing 2 mL of the stock solution and 2 mL of water. For test groups 3 and 4, the test solution was prepared by mixing 2 mL of the stock solution and 2 mL of 0.1 N HCl solution. For test groups 5 and 6, the test solution was prepared by mixing 2 mL of the stock solution and 2 mL of 0.1 N NaOH solution. Test groups 1, 3, and 5 (at room temperature) were shielded from light by wrapping with aluminum foil.
A stock solution was prepared by dissolving 5.37 mg of OAD2 2HCl in acetonitrile:water (40:60) to a final volume of 10 mL ([…]). For test group 7, the test solution was prepared by mixing 2 mL of the stock solution and 2 mL of 3% aqueous H2O2. For test group 8, the test solution was prepared by dissolving 5.58 mg to 5.64 mg of OAD2 2HCl in acetonitrile:water (40:60) to a final volume of 25 mL.
The samples in each test group were stored either at room temperature or at 60° C. and observed after the periods indicated in the Table below.
A validated, reverse phase liquid chromatography gradient method was applied to determine assay (content of the active ingredient). The column used was Supelco Ascentis Express RP-Amide, 150×3.0 mm, 2.7μ or equivalent column. Mobile phase A comprises 0.05% TFA in water (v/v). Mobile phase B comprises 0.05% TFA in acetonitrile:methanol (1:2) (v/v). The sample was run using a step gradient from time zero (50% mobile phase A) to 38 minutes (99% mobile phase B). The diluent used to dissolve the standard and sample was a 60:40 mixture of acetonitrile and water. Chromatographic peaks were detected using UV detector at 280 nm. Assay value was obtained by comparing peak responses, expressed as the peak area of a sample formulation of known concentration and the peak area obtained from a standard formulation of known concentration.
The impurities were quantitated using the assay procedure described above. […]

[3] = test group 7: 1.5% solution of H2O2, RT, after 90 minutes

## CC[C@@H](c1ccccc1)N1Cc2cc3c(cc2C[C@H]1C(=O)N[C@@H](Cc1ccc(-c2ccnc(C)c2C)cc1)C(=O)O)OC[C@H](c1ccc(OCc2ccc(Cl)c(Cl)c2)cc1)O3 [OAD2, (S)-2-(3S,8S)-3-(4-(3,4-dichlorobenzyloxy)phenyl-7-((S)-1-phenylpropyl)-2,3,6,7,8,9-hexahydro-[1,4]-dioxino[2,3-g]isoquinolin-8-ylformylamino)-3-(4-(2,3-dimethylpyridin-4-yl)phenyl)propionic acid]
[1]; Acid destruction
  Impurities C + D: 0.03%
  Impurity A: 0.13
  Impurity B: Undetected
  Impurity E: Undetected
  Impurity F: 0.34
  Impurity G: 0.05
  Impurity H: Undetected
  Impurity I: Undetected
  Largest unknown impurity: 0.07
  Number of impurities (≥0.05%): 4
  Purity of main peak: 99.4%
  Total Impurities: 0.65%
[1]; Alkali destruction
  Impurities C + D: 0.05%
  Impurity A: 0.13
  Impurity B: 0.02
  Impurity E: Undetected
  Impurity F: 0.36
  Impurity G: 0.07
  Impurity H: Undetected
  Impurity I: Undetected
  Largest unknown impurity: 0.07
  Number of impurities (≥0.05%): 4
  Purity of main peak: 99.3%
  Total Impurities: 0.73%
[1]; High humidity destruction
  Impurities C + D: 0.04%
  Impurity A: 0.12
  Impurity B: Undetected
  Impurity E: 0.01
  Impurity F: 0.31
  Impurity G: 0.04
  Impurity H: Undetected
  Impurity I: Undetected
  Largest unknown impurity: 0.08
  Number of impurities (≥0.05%): 3
  Purity of main peak: 99.3%
  Total Impurities: 0.68%
[1]; High temperature destruction
  Impurities C + D: 0.08%
  Impurity A: 1.76
  Impurity B: 0.97
  Impurity E: 0.08
  Impurity F: 0.26
  Impurity G: 0.09
  Impurity H: 0.02
  Impurity I: Undetected
  Largest unknown impurity: 2.36
  Number of impurities (≥0.05%): 25
  Purity of main peak: 92.2%
  Total Impurities: 7.8%
[1]; Light exposure destruction
  Impurities C + D: 0.01%
  Impurity A: 1.13
  Impurity B: 0.26
  Impurity E: 0.12
  Impurity F: 0.22
  Impurity G: 0.03
  Impurity H: 0.38
  Impurity I: Undetected
  Largest unknown impurity: 0.78
  Number of impurities (≥0.05%): 24
  Purity of main peak: 93.1%
  Total Impurities: 6.9%
[1]; No destruction
  Impurities C + D: 0.05%
  Impurity A: 0.12
  Impurity B: Undetected
  Impurity E: Undetected
  Impurity F: 0.31
  Impurity G: 0.03
  Impurity H: Undetected
  Impurity I: Undetected
  Largest unknown impurity: 0.07
  Number of impurities (≥0.05%): 3
  Purity of main peak: 99.4%
  Total Impurities: 0.6%
[1]; Oxidative destruction
  Impurities C + D: 0.18%
  Impurity A: 0.36
  Impurity B: 2.77
  Impurity E: Undetected
  Impurity F: 0.26
  Impurity G: 0.20
  Impurity H: Undetected
  Impurity I: 0.02
  Largest unknown impurity: 2.56
  Number of impurities (≥0.05%): 18
  Purity of main peak: 91.6% and 91.8%
  Total Impurities: 8.2%

## CC[C@@H](c1ccccc1)N1Cc2cc3c(cc2C[C@H]1C(=O)N[C@@H](Cc1ccc(-c2ccnc(C)c2C)cc1)C(=O)O)OC[C@H](c1ccc(OCc2ccc(Cl)c(Cl)c2)cc1)O3 [OAD2 dihydrochloride, (S)-2-(3S,8S)-3-(4-(3,4-dichlorobenzyloxy)phenyl-7-((S)-1-phenylpropyl)-2,3,6,7,8,9-hexahydro-[1,4]-dioxino[2,3-g]isoquinolin-8-formylamino)-3-(4-(2,3-dimethylpyridin-4-yl)phenyl)propanoic acid dihydrochloride]
[2]; [3]
  growth of impurities by HPLC: significant increase in impurities
  loss of active ingredient: 10%
[2]; test groups 1-6 and 8: water, 0.05N HCl, 0.05N NaOH at RT or 60° C., 1 and 2 days, UV light (365 nm) RT 24 hours
  growth of impurities or loss of active ingredient by HPLC: no substantial growth in any impurities or loss of active ingredient
